Reference: patent US9321773B2, “Compounds” (Respivert Ltd, priority 2009, dated 2016)
Like-named read-outs stand apart in the source and are kept apart here.

Key:
recombinant PI3 kinase γ = recombinant PI3 kinase γ (Homo sapiens (Human), UniProt P48736); test: Enzyme Inhibition Assay (HTRF PI3K enzyme assay, TR-FRET); assay type: biochemical
Outline: (§1)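 TR-FRET readout after 15-18 hr at RT with biotinylated PIP3, GST-tagged GRP1 PH domain and europium/APC fluorophores; product PIP3 displaces the tracer and lowers the signal. Beforehand, compound and PIP2 were reacted for 2 hr at RT with human recombinant PI3Kα, δ or γ.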

[1] = tested on: PMA-differentiated U937 cells; test: MTT Assay (cell viability); assay type: cell-based, Human; conditions: percentage loss of cell viability; for Cell Viability MTT Assay in D-U937 cells at 4 hr: 4 hr in 5% FCS; for Cell Viability MTT Assay in D-U937 cells at 24 hr: 24 hr in 10% FCS
Outline: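 Differentiated U937 cells treated with compound for 4 hr (5% FCS) or 24 hr (10% FCS), then given MTT for 1 hr; formazan dissolved in DMSO and absorbance read at 550 nm. Viability loss expressed as % versus 0.5% DMSO vehicle.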

[2] = tested on: LPS induced neutrophilia in mouse lung; test: LPS-Induced Neutrophilia in the Mouse; assay type: in vivo
Method: Non-fasted mice were dosed by the intra-tracheal route with either vehicle, or the test substance at the time points (“pre-dose”) indicated with respect to the start of LPS treatment. At T=0, mice were placed into an exposure chamber and exposed to LPS. Eight hr after LPS challenge, animals were anesthetized, the trachea cannulated and BALF extracted by infusing and withdrawing 1 mL of PBS into the lungs via a tracheal catheter. Total and differential white cell counts in the BALF samples were measured using a Neubaur haemocytometer. Cytospin smears of the BALF samples were prepared by centrifugation at 200 rpm for 5 min at RT and stained using a DiffQuik stain system (Dade Behring). Cells were counted using oil immersion microscopy.

recombinant PI3 kinase α = recombinant PI3 kinase α (Homo sapiens (Human), UniProt P42336); test: Enzyme Inhibition Assay (HTRF PI3K enzyme assay, TR-FRET); assay type: biochemical; conditions: activity range; read-out: PI3 Kinase Inhibition IC50 values at stated Isozyme α
Chain of recombinant PI3 kinase α (P42336 whole entry): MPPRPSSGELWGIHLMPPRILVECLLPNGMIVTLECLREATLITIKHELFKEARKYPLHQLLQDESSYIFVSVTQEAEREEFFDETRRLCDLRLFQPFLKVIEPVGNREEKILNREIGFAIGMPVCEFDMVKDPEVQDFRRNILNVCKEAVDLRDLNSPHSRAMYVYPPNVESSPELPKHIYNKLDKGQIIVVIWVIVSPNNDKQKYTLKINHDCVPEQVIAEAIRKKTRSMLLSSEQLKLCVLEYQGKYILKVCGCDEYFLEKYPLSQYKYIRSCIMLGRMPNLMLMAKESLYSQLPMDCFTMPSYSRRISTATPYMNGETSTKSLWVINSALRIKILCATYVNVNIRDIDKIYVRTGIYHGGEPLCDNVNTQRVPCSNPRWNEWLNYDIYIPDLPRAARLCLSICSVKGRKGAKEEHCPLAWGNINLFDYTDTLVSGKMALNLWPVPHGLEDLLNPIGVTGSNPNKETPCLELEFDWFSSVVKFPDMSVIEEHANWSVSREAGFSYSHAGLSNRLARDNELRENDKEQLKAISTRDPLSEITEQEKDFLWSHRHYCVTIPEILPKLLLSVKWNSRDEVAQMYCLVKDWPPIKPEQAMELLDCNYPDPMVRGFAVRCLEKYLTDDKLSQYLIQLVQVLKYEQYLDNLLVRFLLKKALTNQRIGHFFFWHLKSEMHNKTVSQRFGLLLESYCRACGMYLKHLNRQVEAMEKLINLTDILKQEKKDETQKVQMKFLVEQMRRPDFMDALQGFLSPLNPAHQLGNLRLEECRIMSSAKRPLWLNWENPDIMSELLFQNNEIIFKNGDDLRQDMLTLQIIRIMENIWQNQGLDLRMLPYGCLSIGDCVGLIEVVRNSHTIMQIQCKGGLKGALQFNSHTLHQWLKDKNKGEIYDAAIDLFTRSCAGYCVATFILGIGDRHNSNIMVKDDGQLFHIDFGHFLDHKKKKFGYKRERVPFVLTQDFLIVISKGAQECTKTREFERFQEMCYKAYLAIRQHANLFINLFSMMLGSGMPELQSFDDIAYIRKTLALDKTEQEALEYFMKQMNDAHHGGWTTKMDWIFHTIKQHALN
Chain of recombinant PI3 kinase α (P27986 whole entry partner): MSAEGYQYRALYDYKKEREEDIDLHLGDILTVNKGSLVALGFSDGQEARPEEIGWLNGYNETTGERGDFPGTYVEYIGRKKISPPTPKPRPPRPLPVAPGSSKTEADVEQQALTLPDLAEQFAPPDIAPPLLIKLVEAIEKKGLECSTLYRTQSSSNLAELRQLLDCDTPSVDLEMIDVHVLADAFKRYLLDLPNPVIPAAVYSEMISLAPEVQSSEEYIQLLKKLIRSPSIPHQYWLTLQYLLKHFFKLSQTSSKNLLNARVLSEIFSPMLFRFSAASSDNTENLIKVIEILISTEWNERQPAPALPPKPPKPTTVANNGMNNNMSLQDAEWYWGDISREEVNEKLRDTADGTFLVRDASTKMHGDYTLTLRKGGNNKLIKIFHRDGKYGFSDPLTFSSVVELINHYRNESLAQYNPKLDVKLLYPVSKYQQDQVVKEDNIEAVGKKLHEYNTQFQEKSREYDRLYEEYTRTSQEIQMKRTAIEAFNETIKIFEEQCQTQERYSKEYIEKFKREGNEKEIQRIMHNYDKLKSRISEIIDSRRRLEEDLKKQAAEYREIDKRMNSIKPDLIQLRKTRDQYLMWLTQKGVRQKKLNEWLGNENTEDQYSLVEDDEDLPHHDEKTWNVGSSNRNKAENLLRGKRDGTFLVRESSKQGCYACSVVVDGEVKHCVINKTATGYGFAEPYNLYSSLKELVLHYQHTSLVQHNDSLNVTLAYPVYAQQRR
Outline: as §1

recombinant PI3 kinase δ = recombinant PI3 kinase δ (Homo sapiens (Human), UniProt O00329); test: as above; assay type: biochemical; conditions: activity range; read-out: PI3 Kinase Inhibition IC50 values at stated Isozyme δ
Chain of recombinant PI3 kinase δ (O00329 whole entry): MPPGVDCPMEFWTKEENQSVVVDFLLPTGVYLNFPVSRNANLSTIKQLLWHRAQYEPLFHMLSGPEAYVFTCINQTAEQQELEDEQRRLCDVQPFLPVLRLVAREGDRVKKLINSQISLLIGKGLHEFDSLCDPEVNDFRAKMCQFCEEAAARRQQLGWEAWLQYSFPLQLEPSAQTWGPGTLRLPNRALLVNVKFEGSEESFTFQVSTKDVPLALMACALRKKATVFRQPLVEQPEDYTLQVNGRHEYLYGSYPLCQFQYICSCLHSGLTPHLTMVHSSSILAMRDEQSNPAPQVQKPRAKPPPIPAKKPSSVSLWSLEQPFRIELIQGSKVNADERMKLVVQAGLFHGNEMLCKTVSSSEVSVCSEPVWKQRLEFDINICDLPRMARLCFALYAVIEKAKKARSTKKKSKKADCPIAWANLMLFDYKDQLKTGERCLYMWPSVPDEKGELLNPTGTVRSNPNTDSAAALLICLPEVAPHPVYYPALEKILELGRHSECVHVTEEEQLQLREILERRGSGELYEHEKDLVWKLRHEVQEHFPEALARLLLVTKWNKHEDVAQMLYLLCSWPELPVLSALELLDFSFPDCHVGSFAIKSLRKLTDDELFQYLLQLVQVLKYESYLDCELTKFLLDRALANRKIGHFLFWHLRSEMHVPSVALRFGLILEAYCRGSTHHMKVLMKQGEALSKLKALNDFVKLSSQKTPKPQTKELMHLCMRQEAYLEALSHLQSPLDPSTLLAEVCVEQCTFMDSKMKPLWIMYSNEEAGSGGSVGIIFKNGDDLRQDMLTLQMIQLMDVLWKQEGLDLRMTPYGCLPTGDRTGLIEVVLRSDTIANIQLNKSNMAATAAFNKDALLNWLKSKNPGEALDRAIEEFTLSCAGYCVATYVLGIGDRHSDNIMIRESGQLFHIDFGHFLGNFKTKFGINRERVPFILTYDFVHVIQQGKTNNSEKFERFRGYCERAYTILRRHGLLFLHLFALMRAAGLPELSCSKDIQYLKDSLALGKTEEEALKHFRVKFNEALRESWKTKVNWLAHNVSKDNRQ
Chain of recombinant PI3 kinase δ (P27986 whole entry partner): as the sequence (P27986 whole entry partner) above
Outline: as §1

[3] = tested on: H2O2 induced pAkt in D-U937 cells; test: PI3Kδ Cell Based Assay (H2O2 induced pAkt); conditions: Homo sapiens, dU937; activity range; D-U937 cells; read-out: Cellular Activity IC50 values (H2O2 induced pAkt D-U937 Cells)
Outline: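 Read-out is the pAkt/total Akt signal ratio, measured with anti-pAkt and anti-pan-Akt antibodies after H2O2 stimulation. Cells were U937 monocytes given PMA (100 ng/mL) for 48 to 72 hr. IC50 values fitted from compound serial dilutions.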

[4] = Stereochemical analysis by chiral stationary phase HPLC (atropisomerism); assay type: physicochemical; conditions: chiral stationary phase HPLC (16 different conditions for the examples)
Method: Each of these mobile phase are compatible with the column packings referred to above, providing sixteen different solvent and stationary phase permutations. Modifiers such as triethylamine (0.1%), formic acid (0.1%) may be added to improve the resolution
Semi-preparative Chiral Stationary Phase LC-UV was performed on a Gilson preparative modular system using a Daicel Chiralpak AD semi-prep column ([…], 20×250 mm) and a flow rate of 18 mL/min eluting with an isocratic method over 20 min using […] heptane:IPA and 0.1% triethylamine employing an injection volume of 1.0 mL.

[5] = activity range, read-out: PI3 Kinase Inhibition IC50 values at stated Isozyme γ

Chain of recombinant PI3 kinase γ (P48736 whole entry, the tested form may be a part): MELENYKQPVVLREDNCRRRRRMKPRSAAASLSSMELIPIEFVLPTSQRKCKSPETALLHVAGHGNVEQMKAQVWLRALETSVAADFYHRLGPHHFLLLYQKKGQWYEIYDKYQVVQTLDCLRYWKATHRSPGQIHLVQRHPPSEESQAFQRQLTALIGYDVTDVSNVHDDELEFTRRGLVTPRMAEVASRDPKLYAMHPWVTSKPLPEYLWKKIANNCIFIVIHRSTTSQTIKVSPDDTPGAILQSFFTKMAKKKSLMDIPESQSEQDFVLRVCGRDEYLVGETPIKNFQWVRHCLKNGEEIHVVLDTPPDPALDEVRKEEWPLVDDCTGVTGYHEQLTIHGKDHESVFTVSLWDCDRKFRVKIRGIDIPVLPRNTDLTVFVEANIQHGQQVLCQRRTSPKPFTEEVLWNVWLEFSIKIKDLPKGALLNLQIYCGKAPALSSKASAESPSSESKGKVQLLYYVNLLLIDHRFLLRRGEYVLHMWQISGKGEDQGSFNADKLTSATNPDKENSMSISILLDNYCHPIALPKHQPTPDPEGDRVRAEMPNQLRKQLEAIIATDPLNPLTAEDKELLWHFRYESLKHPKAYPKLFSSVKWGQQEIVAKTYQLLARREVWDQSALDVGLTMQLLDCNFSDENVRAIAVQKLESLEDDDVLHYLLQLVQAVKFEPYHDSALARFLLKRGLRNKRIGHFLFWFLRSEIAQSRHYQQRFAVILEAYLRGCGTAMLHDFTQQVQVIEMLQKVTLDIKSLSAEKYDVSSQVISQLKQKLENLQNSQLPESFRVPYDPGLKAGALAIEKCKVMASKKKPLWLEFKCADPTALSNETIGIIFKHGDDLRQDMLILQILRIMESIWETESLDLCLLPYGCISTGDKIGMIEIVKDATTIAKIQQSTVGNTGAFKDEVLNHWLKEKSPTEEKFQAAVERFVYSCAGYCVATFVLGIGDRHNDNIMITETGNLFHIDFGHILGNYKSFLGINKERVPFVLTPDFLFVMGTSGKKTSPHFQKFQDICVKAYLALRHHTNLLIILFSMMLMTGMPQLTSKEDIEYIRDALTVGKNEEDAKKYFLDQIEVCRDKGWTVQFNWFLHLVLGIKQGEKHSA

| SMILES | IC50 (recombinant PI3 kinase γ; [5]) [nM] | IC50 (recombinant PI3 kinase γ; read-out: PI3 Kinase Inhibition IC50 values at stated Isozyme (nM) γ) [nM] | Cell Viability MTT Assay in D-U937 cells at 4 hr [1] | Cell Viability MTT Assay in D-U937 cells at 24 hr [1] | % Inhibition of neutrophils in BAL at the dose indicated (mg/mL) (0.05) ([2]; 0.05 mg/mL intra-tracheal, 2 hr before LPS challenge, mouse) [%] | % Reduction of inhibition at 8 hr compared with 2 hr ([2]; 0.2 mg/mL dose, mouse lung) [%] | % Inhibition of neutrophils in BAL at the dose indicated (mg/mL) (0.2) ([2]; 0.2 mg/mL intra-tracheal, 2 hr before LPS challenge, mouse) [%] | % Inhibition at 0.2 mg/mL dose at time indicated (hr) (2) ([2]; 0.2 mg/mL, dosed 2 hr before LPS challenge, mouse lung) [%] | % Inhibition at 0.2 mg/mL dose at time indicated (hr) (8) ([2]; 0.2 mg/mL, dosed 8 hr before LPS challenge, mouse lung) [%] | % Inhibition of neutrophils in BAL at the dose indicated (mg/mL) (1.0) ([2]; 1.0 mg/mL intra-tracheal, 2 hr before LPS challenge, mouse) [%] | inhibition of LPS-induced neutrophilia (neutrophil influx into the lung), in words ([2]; intra-tracheal dosing before LPS challenge, mouse) | IC50 (recombinant PI3 kinase α) [nM] | IC50 (recombinant PI3 kinase δ) [nM] | IC50 [3] [nM] | atropisomerism by chiral stationary phase HPLC [4] |
| --- | --- | --- | --- | --- | --- | --- | --- | --- | --- | --- | --- | --- | --- | --- | --- |
| Nc1ncnc2c1c(-c1ccc(O)cc1)nn2Cc1nc2cccc(C#CCCCC(=O)O)c2c(=O)n1Cc1ccccc1Cl [Example 4, 6-(2-((4-Amino-3-(4-hydroxyphenyl)-1H-pyrazolo[3,4-d]pyrimidin-1-yl)methyl)-3-(2-chlorobenzyl)-4-oxo-3,4-dihydroquinazolin-5-yl)hex-5-ynoic acid] | < 50 | 20 | − (− <30%) | − (− <30%) | 3.2 | 73 | 47.2 | 47.2 | 12.9 | 64.6 | dose dependent inhibition |  |  |  |  |
| C#Cc1cccc2nc(Cn3nc(-c4ccc(O)cc4)c4c(N)ncnc43)n(Cc3ccc(S(C)(=O)=O)cc3)c(=O)c12 [Example 20, 2-((4-Amino-3-(4-hydroxyphenyl)-1H-pyrazolo[3,4-d]pyrimidin-1-yl)methyl)-5-ethynyl-3-(4-(methylsulfonyl)benzyl)quinazolin-4(3H)-one] | 50 to 1000 |  | − (− <30%) | − (− <30%) |  |  |  |  |  |  |  | 50 to 1000 | < 50 | < 10 | no evidence for atropisomerism was observed |
| C#Cc1cccc2nc(Cn3nc(-c4cccc(O)c4)c4c(N)ncnc43)n(Cc3ccc(C(F)(F)F)cc3)c(=O)c12 [Example 21, 2-((4-Amino-3-(3-hydroxyphenyl)-1H-pyrazolo[3,4-d]pyrimidin-1-yl)methyl)-5-ethynyl-3-(4-(trifluoromethyl)benzyl)quinazolin-4(3H)-one] | 50 to 1000 |  | − (− <30%) | − (− <30%) |  |  |  |  |  |  |  | 50 to 1000 | < 50 | < 10 | no evidence for atropisomerism was observed |
| C#Cc1cccc2nc(Cn3nc(-c4cccc(O)c4)c4c(N)ncnc43)n(Cc3cccc(S(C)(=O)=O)c3)c(=O)c12 [Example 23, 2-((4-Amino-3-(3-hydroxyphenyl)-1H-pyrazolo[3,4-d]pyrimidin-1-yl)methyl)-5-ethynyl-3-(3-(methylsulfonyl)benzyl)quinazolin-4(3H)-one] | 50 to 1000 |  | − (− <30%) | − (− <30%) |  |  |  |  |  |  |  | 50 to 1000 | < 50 | < 10 | no evidence for atropisomerism was observed |
| C#Cc1cccc2nc(Cn3nc(-c4cccc(O)c4)c4c(N)ncnc43)n(Cc3cccc(C#N)c3)c(=O)c12 [Example 24, 3-((2-((4-Amino-3-(3-hydroxyphenyl)-1H-pyrazolo[3,4-d]pyrimidin-1-yl)methyl)-5-ethynyl-4-oxoquinazolin-3(4H)-yl)methyl)benzonitrile] | 50 to 1000 |  | − (− <30%) | − (− <30%) |  |  |  |  |  |  |  | 50 to 1000 | < 50 | < 10 | no evidence for atropisomerism was observed |
| C#Cc1cccc2nc(Cn3nc(-c4cccc(O)c4)c4c(N)ncnc43)n(Cc3ccc(Cl)cc3)c(=O)c12 [Example 25, 2-((4-Amino-3-(3-hydroxyphenyl)-1H-pyrazolo[3,4-d]pyrimidin-1-yl)methyl)-3-(4-chlorobenzyl)-5-ethynylquinazolin-4(3H)-one] | 50 to 1000 |  | − (− <30%) | − (− <30%) |  |  |  |  |  |  |  | 50 to 1000 | < 50 | < 10 | no evidence for atropisomerism was observed |
| C#Cc1cccc2nc(Cn3nc(-c4cccc(O)c4)c4c(N)ncnc43)n(Cc3cc(C)on3)c(=O)c12 [Example 31, 2-((4-Amino-3-(3-hydroxyphenyl)-1H-pyrazolo[3,4-d]pyrimidin-1-yl)methyl)-5-ethynyl-3-((5-methylisoxazol-3-yl)methyl)quinazolin-4(3H)-one] | 50 to 1000 |  | − (− <30%) | − (− <30%) |  |  |  |  |  |  |  | 50 to 1000 | < 50 | < 10 | no evidence for atropisomerism was observed |
| C#Cc1cccc2nc(Cn3nc(-c4ccc(O)cc4)c4c(N)ncnc43)n(Cc3cc(C)on3)c(=O)c12 [Example 32, 2-((4-Amino-3-(4-hydroxyphenyl)-1H-pyrazolo[3,4-d]pyrimidin-1-yl)methyl)-5-ethynyl-3-((5-methylisoxazol-3-yl)methyl)quinazolin-4(3H)-one] | 50 to 1000 |  | − (− <30%) | − (− <30%) |  |  |  |  |  |  |  | 50 to 1000 | < 50 | < 10 | no evidence for atropisomerism was observed |
| C#Cc1cccc2nc(Cn3nc(-c4ccc(O)cc4)c4c(N)ncnc43)n(Cc3cccc(Cl)c3F)c(=O)c12 [Example 33, 2-((4-Amino-3-(4-hydroxyphenyl)-1H-pyrazolo[3,4-d]pyrimidin-1-yl)methyl)-3-(3-chloro-2-fluorobenzyl)-5-ethynylquinazolin-4(3H)-one] | 50 to 1000 |  | − (− <30%) | − (− <30%) |  |  |  |  |  |  |  | 50 to 1000 | < 50 | < 10 | no evidence for atropisomerism was observed |
| C#Cc1cccc2nc(Cn3nc(-c4ccc(O)cc4)c4c(N)ncnc43)n(Cc3c(F)cccc3F)c(=O)c12 [Example 34, 2-((4-Amino-3-(4-hydroxyphenyl)-1H-pyrazolo[3,4-d]pyrimidin-1-yl)methyl)-3-(2,6-difluorobenzyl)-5-ethynylquinazolin-4(3H)-one] | 50 to 1000 |  | − (− <30%) | − (− <30%) |  |  |  |  |  |  |  | 50 to 1000 | < 50 | < 10 | no evidence for atropisomerism was observed |
| C#Cc1cccc2nc(Cn3nc(-c4ccc(O)cc4)c4c(N)ncnc43)n(Cc3ccc(F)cc3)c(=O)c12 [Example 38, 2-((4-Amino-3-(4-hydroxyphenyl)-1H-pyrazolo[3,4-d]pyrimidin-1-yl)methyl)-5-ethynyl-3-(4-fluorobenzyl) quinazolin-4(3H)-one] | 50 to 1000 |  | − (− <30%) | − (− <30%) |  |  |  |  |  |  |  | 50 to 1000 | < 50 | < 10 | no evidence for atropisomerism was observed |
